Source: patent US8895717B2, “Delivery of siRNA by neutral lipid compositions” (The Board of Regents of the University of Texas System, priority 2005, dated 2014)
Structures can show the parent of a compound that is named as a salt.

Assays:
HeyA8 cells [1] = assay: Chronic restraint stress, HeyA8 orthotopic tumor growth; type: in vivo, nude mice; settings: propranolol Alzet pump 2 mg/kg/day
Text: Mice habituated to vivarium conditions for 1 week before the initiation of stress procedures. A restraint-stress procedure was used based on previous studies (Sheridan et al., 1991), substituting a novel Mouse Restraint System (FIG. 15A) for conical centrifuge tubes. In this system, up to 10 mice are placed in individual slots, and each slot can be adjusted to restrain the animal for a desired length of time. In the present study, restraint stress began between 8 a.m. and 10 a.m., and lasted for 2-6 hours for up to 21 days. […] Immunohistochemistry and H&E staining procedures were carried out on formalin-fixed paraffin-embedded tumors. […] Pumps were inserted on the nape of the neck 7 days prior to initiation of restraint stress for 2 hours daily. Mice were anesthetized with inhaled methoxyflurane (Medical Developments Australia Pty. Ltd, Melbourne, Australia), and implanted with Alzet pumps containing PBS or S-propranolol hydrochloride (Sigma Co., St. Louis, Mo.) diluted in PBS at a dose of 2 mg/kg/day, which allows for chronic continuous receptor blockade, for 28 days (Aarons and Molinoff, 1982; Exton et al., 2002).

HeyA8 cells [2] = assay: Daily β-agonist treatment of mice bearing HeyA8 ovarian cancer cells; type: in vivo, nude mice; settings: terbutaline 5 mg/kg, xamoterol 1 mg/kg, isoproterenol plus propranolol 2 mg/kg, daily
Text: Mice habituated to vivarium conditions for 1 week before the initiation of stress procedures. A restraint-stress procedure was used based on previous studies (Sheridan et al., 1991), substituting a novel Mouse Restraint System (FIG. 15A) for conical centrifuge tubes. In this system, up to 10 mice are placed in individual slots, and each slot can be adjusted to restrain the animal for a desired length of time. In the present study, restraint stress began between 8 a.m. and 10 a.m., and lasted for 2-6 hours for up to 21 days. The ovarian cancer cell lines were harvested from subconfluent cultures by a brief exposure to 0.25% trypsin and 0.02% EDTA, resuspended in Hank's balanced salt solution (HBSS), and tested for >95% viability by trypan blue dye exclusion. The HeyA8 cells were injected i.p. into mice at a concentration of 2.5×10^5 cells while the other cell lines were injected at 1.0×10^6 cells per 0.2 ml HBSS, ten days after starting stress in all groups. Animals were necropsied 21 days after tumor injection, and tumors in the peritoneal cavity were excised, weighed, and documented for location. Immunohistochemistry and H&E staining procedures were carried out on formalin-fixed paraffin-embedded tumors.
Starting 4 days after tumor cell injection, mice bearing HeyA8 ovarian cancer cells (n=10 per group) were treated daily with either 1) PBS; 2) isoproterenol (non-specific β-agonist) 10 mg/kg; 3) terbutaline (β2-agonist) 5 mg/kg; 4) xamoterol (β1-agonist) 1 mg/kg; or 5) isoproterenol plus 2 mg/kg of the non-specific β-antagonist propranolol.

HeyA8 tumor samples = assay: Mean vessel density (CD31) in HeyA8 tumor samples; type: in vivo, nude mice; settings: for MVD counts: daily agonist treatment
Procedure: Paraffin sections were stained for CD31 (1:800 dilution, Pharmingen, San Jose, Calif.), MMP-2 (1:500 dilution, Chemicon, Temecula, Calif.), MMP-9 (1:200 dilution, Calbiochem, San Diego, Calif.), VEGF (1:500 dilution, Santa Cruz Biotechnology, Santa Cruz, Calif.) and bFGF (1:1,000 dilution, Sigma, St. Louis, Mo.) at 4° C. Samples were stained with a biotinylated goat anti-rabbit antibody for 30 min (prediluted), followed by strepavidin horseradish peroxidase for 30 min (1:300 dilution), and visualized in 3,3′-diaminobenzidine (DAB) for 5-10 min.
To quantify MVD, 10 random 0.159 mm^2 fields at 100× magnification were examined for each tumor, and the microvessels within those fields were counted. A single microvessel was defined as a discrete cluster of cells stained CD31(+), and the presence of a lumen was required for scoring as a microvessel.

VEGF mRNA = VEGF mRNA expression, real-time RT-PCR; type: cell-based, human; settings: SKOV3ip1; forskolin 1 μM, db-cAMP 1 mM
Procedure: Total RNA was extracted (Trizol reagent; Invitrogen Co, Carlsbad, Calif.) and reverse transcribed using an oligo(dT) primer and M-MLV reverse transcriptase (Life Technologies, Inc., Rockville, Md.) in a final reaction volume of 20 μl (60 min at 42° C.). PCR amplifications are performed using the ABI Prism 7700 Sequence Detection System with TaqMan One-Step RT-PCR Master Mix Reagent kit (PE Applied Biosystems, Foster City, Calif.). Quantitative values are obtained from the Ct value, at which the increase in fluorescent signal associated with exponential growth of PCR products starts to be detected by the laser detector of the Sequence Detection System, using the analysis software according to the manufacturer's instructions (each sample is normalized on the basis of its I8S content). The VEGF primers were obtained from Applied Biosystems (Item number HS00173626-ml). βAR expression was examined with semi-quantitative RT-PCR using the following primers: βAR (forward, 5′-[…]-3′ (SEQ ID NO:13), reverse, 5′-[…]-3′) (SEQ ID NO:14); β2AR (forward, 5′-[…]-3′ (SEQ ID NO:15), reverse, 5′-[…]-3′) (SEQ ID NO:16).

FAK = FAK cleavage in response to docetaxel, Western blot; type: cell-based, human; settings: in the presence of DEVD-fmk
Procedure: Cells were lysed in modified RIPA buffer (50 mM Tris, 150 mM NaCl, 1% triton, 0.5% deoxycholate plus 25 µg/ml leupeptin, 10 µg/ml aprotinin, 2 mM EDTA, and 1 mM sodium orthovanadate (Sigma Chemical Co, St. Louis, Mo.) as previously described (Sood et al., 2004; Sood et al., 2002). A sample was removed from culture dishes by cell scraping and centrifuged at 12,500 rpm for 30 min. The […] protein concentration of the supernatant was determined using a bicinchoninic acid protein assay reagent kit (Pierce, Rockford, Ill.), and whole cell lysates were analyzed by 7.5% SDS-PAGE. Samples were then transferred to nitrocellulose membrane by semi-dry transfer (BioRad Laboratories, Hercules, Calif.). Membranes were blocked with 5% nonfat milk, and incubated with 0.25 μg/mL anti-FAK antibody (Biosource, International Camarillo, Calif.) for 1 h at room temperature. Antibody was detected with 0.167 μg/mL HRP-conjugated anti-mouse secondary antibody (The Jackson Laboratory, Bar Harbor, Me.) and developed with an enhanced chemiluminescence detection kit (Pierce). Equal loading was confirmed by detection of β-actin (0.1 μg/ml, anti-β-actin antibody, Sigma Chemical). Densitometric analysis was performed using the Scion Imaging software (Scion Corporation, Frederick, Md.).
It has been reported that FAK may be cleaved by caspase-3 (Gervais et al., 1998; Sasaki et al., 2002; Carragher et al., 2001). Based on observations regarding modulation of caspase levels by docetaxel in ovarian cancer cells, FAK cleavage after treatment with docetaxel was examined and whether there are differences in extent of FAK cleavage between the taxane-sensitive and taxane-resistant cell lines. In SKOV3 cells, FAK was cleaved after 48 and 72 hours of exposure to docetaxel (FIG. 7A). The 71-kDa fragments increased after treatment with docetaxel, whereas the 125-kDa fragments decreased. […] To study the dependence of FAK cleavage on caspase-3, the effect of DEVDfmk (caspase-3 inhibitor) was examined.

SKOV3 cells = assay: TUNEL apoptosis assay, SKOV3; type: cell-based, human; settings: SKOV3, docetaxel 72 hours without or with DEVD-fmk
Procedure: (§1) Terminal deoxynucleotidyl transferase-mediated nick end labeling-positive cells were detected using Dead End Fluorometric terminal deoxynucleotidyl transferase-mediated nick end labeling system (APO-DIRECT, BD Biosciences/PharMingen, San Diego, Calif.) according to the manufacturer's instructions. […] Cells were fixed with 4% paraformaldehyde solution for 25 minutes on ice. Intracellular DNA fragments were then labeled by exposing cells to fluorescein-12-dUTP, treated with propidium iodide and RNaseA solution, and analyzed by flow cytometry (EPICS XL, Beckman Coulter, Miami, Fla.). The percentages of apoptotic cells were averaged over three consecutive experiments.

HeyA8 cells [3] = assay: TUNEL apoptosis assay, HeyA8; type: cell-based, human; settings: HeyA8, docetaxel 72 hours without or with DEVD-fmk
Procedure: as §1

Structure (SMILES): CC(C)NC[C@H](O)COc1cccc2ccccc12 (racemic) [propranolol, S-propranolol hydrochloride]
- invasive disease among stressed animals (HeyA8 cells [1]): 0%
- effect of stress on tumor weight and number of nodules (HeyA8 cells [1]; daily 2 hour stress): stress did not significantly increase tumor weight or the number of tumor nodules
- tumor burden (HeyA8 cells [2]): blocked the isoproterenol-induced increase in tumor growth
- MVD counts (HeyA8 tumor samples): blocked that increase as well
- stress-induced increases in MVD counts (HeyA8 tumor samples; stressed animals): efficiently blocked stress-induced increases in MVD counts
- effect on VEGF mRNA (VEGF mRNA): blocked

Structure (SMILES): COC(=O)CC[C@H](NC(=O)[C@H](CC(=O)OC)NC(=O)OCc1ccccc1)C(=O)N[C@H](C(=O)N[C@@H](CC(=O)OC)C(=O)CF)C(C)C [DEVD-fmk]
- docetaxel-induced FAK cleavage (FAK): docetaxel-induced FAK cleavage was blocked
- proportion of apoptotic cells (SKOV3 cells): 7%
- proportion of apoptotic cells (HeyA8 cells [3]): 6%

Structure (SMILES): CCCCCCOC(=O)[C@]1(O)C[C@@H]2O[C@@]1(C)n1c3ccccc3c3c4c(c5c6ccccc6n2c5c31)C(=O)NC4 [KT5720]
- effect on VEGF mRNA (VEGF mRNA): efficiently blocked the effects of norepinephrine and forskolin on VEGF mRNA expression

Structure (SMILES): CCCC(=O)Nc1ncnc2c1ncn2[C@@H]1O[C@@H]2COP(=O)(O)O[C@H]2[C@H]1OC(=O)CCC [dibutyryl cAMP]
- effect on VEGF mRNA (VEGF mRNA): also increased VEGF mRNA levels

Structure (SMILES): CC(C)(C)NCC(O)c1cc(O)cc(O)c1 (stereo not drawn) [terbutaline]
- MVD counts (HeyA8 tumor samples): significantly higher MVD counts compared to controls
